The values that follow are results of earlier work, collected in patent publication US20050220753A1, “Hydrophilic polymers-flavoids conjugates and pharmaceutical compositions comprising them” (BEIJING JIANKAI TECHNOLOGY CO., LTD, priority 2002, published 2005).

Like-named read-outs stand apart in the source and are kept apart here.

For data set [1] the following is noted: rats, intravenous injection.
The conditions of data set [2]: human, intravenously infused.

On to `O=c1cc(-c2ccccc2)oc2cc(O)c(O)c(O)c12` [Baicalein], for which, in data set [1], the absorption half-life was 13 min and the elimination half-life is 42 min.
For the compound `O=c1c(-c2ccc(O)cc2)coc2c([C@@H]3O[C@H](CO)[C@@H](O)[C@H](O)[C@H]3O)c(O)ccc12` [Puerarin], the elimination half-life in data set [2] is 74 min.
